Data: US7932262B2 (Novartis AG, priority 2006, dated 2011)

Tests used:
[1] = target: T1, PDK1 kinase (Homo sapiens, UniProt O15530); assay: PDK1 Kinase Alpha Screen Assay; format: biochemical; details: read-out: PDK1 IC50
T1 sequence (O15530 1-556): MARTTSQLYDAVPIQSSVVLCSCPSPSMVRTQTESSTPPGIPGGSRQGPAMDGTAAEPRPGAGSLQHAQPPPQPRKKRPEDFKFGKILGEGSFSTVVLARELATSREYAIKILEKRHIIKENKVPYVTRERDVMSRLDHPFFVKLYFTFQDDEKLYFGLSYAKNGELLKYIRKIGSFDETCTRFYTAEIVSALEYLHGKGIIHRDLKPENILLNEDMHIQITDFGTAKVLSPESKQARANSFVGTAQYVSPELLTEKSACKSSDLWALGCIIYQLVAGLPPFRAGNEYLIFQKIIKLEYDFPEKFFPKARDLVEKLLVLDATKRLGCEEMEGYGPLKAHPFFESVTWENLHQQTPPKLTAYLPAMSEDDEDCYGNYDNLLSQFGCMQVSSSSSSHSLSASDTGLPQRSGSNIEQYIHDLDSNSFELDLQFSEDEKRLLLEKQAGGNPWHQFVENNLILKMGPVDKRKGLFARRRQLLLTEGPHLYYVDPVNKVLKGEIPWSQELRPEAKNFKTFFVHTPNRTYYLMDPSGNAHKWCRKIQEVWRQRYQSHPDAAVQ
Summary of the method: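 PDK1, 10 uM ATP, 50 nM biotin-PDK1-4 peptide; 50 mM Tris pH 7.5, 10 mM MgCl2, 0.1% BSA, 0.01% Tween-20, 2 mM DTT, 2.5% DMSO; 3-18 h. EDTA stop; AlphaScreen, phospho-Ser/Thr antibody, overnight RT.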

[2] = test system: A2780 cells; assay: Cell Proliferation Assay (Cell Titer Glo), A2780; format: cell-based; details: Homo sapiens, 72 h; A2780 cells, 3 days incubation; read-out: CPEC50 A2780
Summary of the method: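 Following a 3-day compound exposure (37° C., 5% CO2) of A2780 or PC3MM cells plated at 1000 per well, viability was measured by Cell Titer Glo luminescence in fresh medium, read 10 min after reagent addition.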

[3] = test system: pAkt308 (phosphorylation of Akt at T308) in PC-3 cells; assay: pAkt T308 ECL Assay in PC-3 cells; format: cell-based; details: Homo sapiens, 6 h, six hours with compound, read-out: PAKT308 PC3 IC50
Experimental: VI. The pAkt^T308 ECL Assay Protocol
On Day 1, PC-3 cells were seeded at 15,000 cells/well in 100 μL/well ([…]) growth media into black-walled, clear bottom, poly-L-lysine coated plates. The cells were incubated overnight in a 37° C., 5% CO2 incubator.
On Day 2, a MSD ECL plate was blocked for two hours with 150 μL per well of 3% MSD blocker A.
Test compounds were diluted to 500× in DMSO and then were subjected to further serial dilution using a BioMek 2000 instrument. DMSO diluted compounds were then diluted into growth media and then added to the cell plates.
The cell plates incubated with compounds for six hours in a 37° C., 5% CO2 incubator after which the growth medium was removed and 55 μl of MSD lysis buffer was added to cell plates on ice. The plates were lysed on ice for five minutes followed by 15 minutes of vigorous shaking on a plate shaker at 4° C. The blocked MSD assay plates were washed twice with 1×MSD wash buffer followed by the addition of cell lysate as follows: 30 μl of cell lysate was added to the pAkt308 plates and 13 μl of lysate+12 μl lysis buffer was added to the tAkt plates. The plates were then sealed and shaken at 4° C. overnight.
On Day 3, the MSD plates were washed four times with 1×MSD wash buffer then, 25 μl/well of MSD SULFO-TAG antibodies diluted to 10 nM final concentration in 1% blocker. A buffer was added to the antibody diluent which was added to assay plates. The plates were then sealed and incubated at RT for 1.5 hour. The plates were then washed twice with 1×MSD wash buffer followed by the addition of 150 μl/well of 1.5×MSD read buffer. The plates were read immediately after the addition of read buffer using a Trilux instrument. […]

[4] = test system: PC-3 cells; assay: Cell Proliferation Assay (Cell Titer Glo), PC-3 cell line; format: cell-based; details: Homo sapiens, PC-3, 72 h, PC-3 cells, 3 days incubation; read-out: CP EC50 PC3
Summary of the method: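 Cell Titer Glo luminescence, read after fresh medium replaced the dosing medium, gave viability of PC-3 cells plated at 1000 cells/well. Compounds, 1:3 serially diluted in DMSO at 500× and then in medium, were added after 3-5 h adhesion and incubated 3 days at 37° C.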

Work on `O=S(=O)(c1cccc(Nc2ncc3cccc(OC4CCNCC4)c3n2)c1)N1CCOCC1` [Compound 5, [3-(Morpholine-4-sulfonyl)-phenyl]-[8-(piperidin-4-yloxy)-quinazolin-2-yl]-amine] yielded an IC50 [1] of less than 5 µM, an EC50 [2] of less than 5 µM and an IC50 [3] of 5 to 10 µM.
`NS(=O)(=O)c1ccc(Nc2ncc3ccc(-c4cccnc4)c(OC4CCNCC4)c3n2)cc1` [Compound 18, 4-[8-(Piperidin-4-yl-oxy)-7-pyridin-3-yl-quinazolin-2-ylamino]-benzenesulfonamide] gave an IC50 [1] of less than 5 µM, an EC50 [2] of less than 5 µM and an IC50 [3] of 5 to 10 µM.
Work on `Nc1ccc(-c2ccc3cnc(Nc4ccc(S(N)(=O)=O)cc4)nc3c2OC2CCNCC2)cn1` [Compound 21, 4-[7-(6-Amino-pyridin-3-yl)-8-(piperidin-4-yloxy)-quinazolin-2-ylamino]-benzenesulfonamide] yielded an IC50 [1] of less than 5 µM, an EC50 [2] of less than 5 µM and an IC50 [3] of 5 to 10 µM.
In the case of `COc1cncc(-c2ccc3cnc(Nc4ccc(S(N)(=O)=O)cc4)nc3c2OC2CCNCC2)c1` [Compound 23, 4-[7-(5-Methoxy-pyridin-3-yl)-8-(piperidin-4-yloxy)-quinazolin-2-ylamino]-benzenesulfonamlde], the IC50 [1] is reported as less than 5 µM, the EC50 [2] is reported as less than 5 µM and the IC50 [3] is reported as 5 to 10 µM.
Molecule `NS(=O)(=O)c1ccc(Nc2ncc3ccc(-c4cn[nH]c4)c(OC4CCNCC4)c3n2)cc1` [Compound 24, 4-[8-(Piperidin-4-yloxy)-7-(1H-pyrazol-4-yl)-quinazolin-2-ylamino]-benzenesulfonamide] has an IC50 [1] of less than 5 µM, an EC50 [2] of less than 5 µM and an IC50 [3] of 5 to 10 µM.
`Cn1cc(-c2ccc3cnc(Nc4ccc(S(N)(=O)=O)cc4)nc3c2OC2CCNCC2)cn1` [Compound 25, 4-[7-(1-Methyl-1H-pyrazol-4-yl)-8-(piperidin-4-yloxy)-quinazolin-2-ylamino]-benzenesulfonamide] was tested, and the IC50 [1] was less than 5 µM, the EC50 [2] was less than 5 µM and the IC50 [3] was 5 to 10 µM.
`NS(=O)(=O)c1ccc(Nc2ncc3ccc(-c4ncco4)c(OC4CCNCC4)c3n2)cc1` [Compound 26, 4-[7-Oxazol-2-yl-8-(piperidin-4-yloxy)-quinazolin-2-ylamino]-benzenesulfonamide] was tested, and the IC50 [1] was less than 5 µM, the EC50 [2] was less than 5 µM and the IC50 [3] was 5 to 10 µM.
In the case of `NS(=O)(=O)c1ccc(Nc2ncc3ccc(-c4nccs4)c(OC4CCNCC4)c3n2)cc1` [Compound 27, 4-[8-(Piperidin-4-yloxy)-7-thiazol-2-yl-quinazolin-2-ylamino]-benzenesulfonamide], the IC50 [1] is reported as less than 5 µM, the EC50 [2] is reported as less than 5 µM and the IC50 [3] is reported as less than 5 µM.
Work on `NS(=O)(=O)c1ccc(Nc2ncc3ccc(-c4ccccn4)c(OC4CCNCC4)c3n2)cc1` [Compound 28, 4-[8-(Piperidin-4-yloxy)-7-pyridin-2-yl-quinazolin-2-ylamino]-benzenesulfonamide] yielded an IC50 [1] of less than 5 µM, an EC50 [2] of less than 5 µM and an IC50 [3] of 5 to 10 µM.
For `CN1CCC(Oc2cccc3cnc(Nc4ccc(S(N)(=O)=O)cc4)nc23)CC1` [Compound 35, 4-[8-(1-Methyl-piperidin-4-yloxy)-quinazolin-2-ylamino]-benzenesulfonamide], the IC50 [1] was less than 5 µM, the EC50 [2] was less than 5 µM and the IC50 [3] was less than 5 µM.
`NS(=O)(=O)c1ccc(Nc2ncc3cccc(O[C@@H]4CCNC4)c3n2)cc1` [Compound 37, 4-[8-((R)-Pyrrolidin-3-yloxy)-quinazolin-2-ylamino]-benzenesulfonamide] gave an IC50 [1] of less than 5 µM, an EC50 [2] of less than 5 µM and an IC50 [3] of 5 to 10 µM.
`CNC(=O)c1ccc(Nc2ncc3cccc(OC4CCN(C(C)C)CC4)c3n2)cc1` [Compound 43, 4-[8-(1-Isopropyl-piperidin-4-yloxy)-quinazolin-2-ylamino]-N-methyl-benzamide] showed an IC50 [1] of less than 5 µM, an EC50 [2] of less than 5 µM and an IC50 [3] of less than 5 µM.
In the case of `CCN1CCC(Oc2cccc3cnc(Nc4ccc(S(N)(=O)=O)cc4)nc23)CC1` [Compound 46, 4-[8-(1-Ethyl-piperidin-4-yloxy)-quinazolin-2-ylamino]-benzenesulfonamide], the IC50 [1] is reported as less than 5 µM, the EC50 [2] is reported as less than 5 µM and the IC50 [3] is reported as 5 to 10 µM.
`CC(=O)Nc1ccc(Nc2ncc3ccc(OC4CCNCC4)cc3n2)cc1C` [Compound 63, N-{2-Methyl-4-[7-(piperidin-4-yloxy)-quinazolin-2-ylamino]-phenyl}-acetamide] showed an IC50 [1] of less than 5 µM, an EC50 [4] of less than 5 µM and an IC50 [3] of less than 5 µM.
In the case of `CC(C)Cn1cc(-c2ccc3cnc(Nc4ccc(S(N)(=O)=O)cc4)nc3c2OC2CCNCC2)cn1` [Compound 65], the IC50 [1] is reported as less than 5 µM, the EC50 [2] is reported as less than 5 µM and the IC50 [3] is reported as 5 to 10 µM.
For `NS(=O)(=O)c1ccc(Nc2ncc3ccc(-c4cnccn4)c(OC4CCNCC4)c3n2)cc1` [Compound 66, 4-[8-(Piperidin-4-yloxy)-7-pyrazin-2-yl-quinazolin-2-ylamino]-benzenesulfonamide], the IC50 [1] was less than 5 µM, the EC50 [2] was less than 5 µM and the IC50 [3] was 5 to 10 µM.
`Nc1ncc(-c2ccc3cnc(Nc4ccc(S(N)(=O)=O)cc4)nc3c2OC2CCNCC2)cc1C(F)(F)F` [Compound 68, 4-[7-(6-Amino-5-trifluoromethyl-pyridin-3-yl)-8-(piperidin-4-yloxy)-quinazolin-2-ylamino]-benzenesulfonamide] was tested, and the IC50 [1] was less than 5 µM, the EC50 [4] was less than 5 µM and the IC50 [3] was 5 to 10 µM.
For `CNC(=O)Cc1ccc(Nc2ncc3cccc(OC4CCN(C(C)C)CC4)c3n2)cc1` [Compound 70, 2-{4-[8-(1-Isopropyl-piperidin-4-yloxy)-quinazolin-2-ylamino]-phenyl}-N-methyl-acetamide], the IC50 [1] was less than 5 µM, the EC50 [4] was less than 5 µM and the IC50 [3] was 10 to 25 µM.
`CC(C)NC(=O)Cc1ccc(Nc2ncc3cccc(OC4CCN(C(C)C)CC4)c3n2)cc1` [Compound 71, N-Isopropyl-2-{4-[8-(1-isopropyl-piperidin-4-yloxy)-quinazolin-2-ylamino]-phenyl}-acetamide] was tested, and the IC50 [1] was less than 5 µM, the EC50 [4] was less than 5 µM and the IC50 [3] was 5 to 10 µM.
For `CC(C)N1CCC(Oc2cccc3cnc(Nc4ccc(N5CCOCC5)cc4)nc23)CC1` [Compound 72, [8-(1-Isopropyl-piperidin-4-yloxy)-quinazolin-2-yl]-(4-morpholin-4-yl-phenyl)-amine], the IC50 [1] was less than 5 µM, the EC50 [4] was less than 5 µM and the IC50 [3] was less than 5 µM.
`CC(=O)Nc1ccc(Nc2ncc3cccc(OC4CCN(C(C)C)CC4)c3n2)cc1` [Compound 73, N-{4-[8-(1-Isopropyl-piperidin-4-yloxy)-quinazolin-2-ylamino]-phenyl}-acetamide] showed an IC50 [1] of less than 5 µM, an EC50 [4] of less than 5 µM and an IC50 [3] of 5 to 10 µM.
With `CNC(=O)Cc1cccc(Nc2ncc3cccc(OC4CCN(C(C)C)CC4)c3n2)c1` [Compound 77, 2-{3-[8-(1-Isopropyl-piperidin-4-yloxy)-quinazolin-2-ylamino]-phenyl}-N-methyl-acetamide] the IC50 [1] was less than 5 µM, the EC50 [4] was less than 5 µM and the IC50 [3] was less than 5 µM.
`CC(=O)Nc1cccc(Nc2ncc3cccc(OC4CCN(C(C)C)CC4)c3n2)c1` [Compound 81] was tested, and the IC50 [1] was less than 5 µM, the EC50 [4] was less than 5 µM and the IC50 [3] was less than 5 µM.
In the case of `C#Cc1cc(OC2CCN(C(C)C)CC2)c2nc(Nc3ccc(S(N)(=O)=O)cc3)ncc2c1` [Compound 86, 4-[6-Ethynyl-8-(1-isopropyl-piperidin-4-yloxy)-quinazolin-2-ylamino]-benzenesulfonamide], the IC50 [1] is reported as less than 5 µM, the EC50 [4] is reported as less than 5 µM and the IC50 [3] is reported as less than 5 µM.
